Values quoted from earlier work in US20040202640A1, “Method for topical treatment of scars with rotein Kinase C inhibitors” (priority 2003, published 2004).

Assays:
calmodulin (CaM) = calmodulin (CaM) (Homo sapiens, UniProt P0DP23)
[1] = tested on: phorbol ester induced omithine decarboxylase activity; settings: mouse skin

CaM function (calmodulin (CaM)) | SMILES | PKC inhibition (PKC) | phorbol ester induced omithine decarboxylase activity [1]
inhibits CaM function | CCCCCCCCCCCCC/C=C/[C@@H](O)[C@@H](N)CO [Sphingosine] | dose-dependently inhibits PKC | inhibit
– | CCCCCCCCCCCCC/C=C/[C@@H](O)[C@@H](N)COP(=O)(O)O [sphingosingosine-1-phosphate, sphingosine-1 phosphate] | more effective PKC inhibitor than sphingosine | –
